The values below are quoted from earlier work in US20210353570A1, “Flutamide Microsphere-Based Arterial Embolization for Treating Prostate Disorders” (Biovena Science, LLC, priority 2018, published 2021).

As a reminder, the bioavailability is the share of a dose that reaches the circulation, judged against a reference dose that is usually intravenous. A word on the half-life: it is the time needed for the level to fall by half in the phase considered.

Test in data set [1]: not given
The source holds these as a separate data set.

Regarding `CC(C)C(=O)Nc1ccc([N+](=O)[O-])c(C(F)(F)F)c1` [Flutamide, 4′-nitro-3′-trifluoromethyl-isobutyranilide], the bioavailability (after oral administration) is recorded as 49%. Also, the half-life (in vivo) was 5 to 6 h. In addition, the solubility result in data set [1] is reported as “low solubility”.
